Experimental data as given in EP0422618A1, “Polysaccharides with antiphlogistic activity, method for obtaining them and pharmaceutical compositions containing the same” (LOMAPHARM Rudolf Lohmann GmbH KG Pharmazeutische Fabrik, priority 1989, dated 1991).

Test system: Carrageenan induzierten Rattenpfotenödem
Assay: Carrageenan-induced rat paw oedema test
Format: in vivo, Ratte
Conditions: 10 mg/kg i.v.
Source text: Die antiphlogistische Wirkung der erfindungsgemäßen Polysaccharide wurde im Carrageenan induzierten Rattenpfotenödemtest untersucht (Winter, C.A. et al., Proc. Soc. Exp. Biol. Med. 111, 544 (1962)).

SMILES: COc1ccc2c(c1)c(CC(=O)O)c(C)n2C(=O)c1ccc(Cl)cc1 [Indometacin]
- Hemmung des Rattenpfotenödems nach 8 Stunden: Indometacin 10 mg/kg i.v. 22,9%
